Data: US6355799B1, “Substituted benzene compounds, process for their preparation, and herbicidal and defoliant compositions containing them” (ISK Americas Incorporated, priority 1997, dated 2002)

Tests used:
Type in all cases: in vivo
[1] = tested on: barnyardgrass (Echinochloa crus-galli, ECHCG); assay: Post-emerge test, greenhouse herbicide activity screening; settings: post-emerge, 14 days after application, rating scale 0-100
Summary of the method: (§1)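 Compounds in acetone were track-sprayed at 15-1000 g ai/ha (187 l/ha) on sandy loam pots: pre-emerge one day after seeding, post-emerge at 2-3 leaf stage with 0.25% v/v non-ionic surfactant. Phytotoxicity was rated 14 days later on a 0 (no damage) to 100 (complete death) scale.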

[2] = tested on: ivyleaf morningglory (Ipomoea hederacea, IPOHE); assay: as above; settings: post-emerge, 14 days after application, rating scale 0-100
Summary of the method: as §1

[3] = tested on: velvetleaf (Abutilon theophrasti, ABUTH); assay: as above; settings: post-emerge, 14 days after application, rating scale 0-100
Summary of the method: as §1

[4] = tested on: johnsongrass (Sorghum halepense, SORHA); assay: as above; settings: post-emerge, 14 days after application, rating scale 0-100
Summary of the method: as §1

[5] = tested on: common ragweed (Ambrosia artemisizfolia L., AMBEL); assay: as above; settings: post-emerge, 14 days after application, rating scale 0-100
Summary of the method: as §1

[6] = tested on: sicklepod (Cassia obtusifolia, CASOB); assay: as above; settings: post-emerge, 14 days after application, rating scale 0-100
Summary of the method: as §1

[7] = tested on: green foxtail (Setaria viridis, SETVI); assay: as above; settings: post-emerge, 14 days after application, rating scale 0-100
Summary of the method: as §1

[8] = tested on: redroot pigweed (Amaranthus retroflexus, AMARE); assay: as above; settings: post-emerge, 14 days after application, rating scale 0-100
Summary of the method: as §1

[9] = tested on: large crabgrass (Digitaria sanguinalis, DIGSA); assay: as above; settings: post-emerge, 14 days after application, rating scale 0-100
Summary of the method: as §1

[10] = tested on: lambsquarters (Chenopodium album, CHEAL); assay: as above; settings: post-emerge, 14 days after application, rating scale 0-100
Summary of the method: as §1

[11] = tested on: redroot pigweed (Amaranthus retroflexus, AMARE); assay: Pre-emerge test, greenhouse herbicide activity screening; settings: rated 14 days after application, 0 = no damage, 100 = complete death
Summary of the method: (§2)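 Compounds in acetone were track-sprayed at 187 l/ha, 15–1000 g ai/ha, onto sandy loam pots. Pre-emerge seeds were sown one day before spraying, with surface watering afterwards. Post-emerge plants were at the 2–3 leaf stage and sprayed with 0.25% v/v non-ionic surfactant. Injury was rated 0–100 at 14 days.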

[12] = tested on: upland rice (Oryza sp., var. Tebonnet, RICE); assay: Post-emerge test, crop safety; settings: post-emerge, 14 days after application, rating scale 0-100
Summary of the method: as §2

[13] = tested on: field corn (Zea mays L., var. Dekalb 535, CORN); assay: Post-emerge test, crop safety; settings: post-emerge, 14 days after application, rating scale 0-100
Summary of the method: as §2

[14] = tested on: barnyardgrass (Echinochloa crus-galli, ECHCG); assay: Pre-emerge test, greenhouse herbicide activity screening; settings: rated 14 days after application, 0 = no damage, 100 = complete death
Summary of the method: as §2

[15] = tested on: ivyleaf morningglory (Ipomoea hederacea, IPOHE); assay: as above; settings: rated 14 days after application, 0 = no damage, 100 = complete death
Summary of the method: as §2

[16] = tested on: velvetleaf (Abutilon theophrasti, ABUTH); assay: as above; settings: rated 14 days after application, 0 = no damage, 100 = complete death
Summary of the method: as §2

[17] = tested on: johnsongrass (Sorghum halepense, SORHA); assay: as above; settings: rated 14 days after application, 0 = no damage, 100 = complete death
Summary of the method: as §2

[18] = tested on: common ragweed (Ambrosia artemisizfolia L., AMBEL); assay: as above; settings: rated 14 days after application, 0 = no damage, 100 = complete death
Summary of the method: as §2

[19] = tested on: sicklepod (Cassia obtusifolia, CASOB); assay: as above; settings: rated 14 days after application, 0 = no damage, 100 = complete death
Summary of the method: as §2

[20] = tested on: green foxtail (Setaria viridis, SETVI); assay: as above; settings: rated 14 days after application, 0 = no damage, 100 = complete death
Summary of the method: as §2

[21] = tested on: large crabgrass (Digitaria sanguinalis, DIGSA); assay: as above; settings: rated 14 days after application, 0 = no damage, 100 = complete death
Summary of the method: as §2

[22] = tested on: lambsquarters (Chenopodium album, CHEAL); assay: as above; settings: rated 14 days after application, 0 = no damage, 100 = complete death
Summary of the method: as §2

[23] = tested on: upland rice (Oryza sp., var. Tebonnet, RICE); assay: Pre-emerge test, crop safety; settings: rated 14 days after application, 0 = no damage, 100 = complete death
Summary of the method: as §1

[24] = tested on: field corn (Zea mays L., var. Dekalb 535, CORN); assay: Pre-emerge test, crop safety; settings: rated 14 days after application, 0 = no damage, 100 = complete death
Summary of the method: as §1

COc1c(Cl)cc(F)c(-n2c(=O)cc(C(F)(F)F)n(C)c2=O)c1NC(=O)c1ccc(Cl)cc1Cl [2-58]
90: phytotoxicity rating ECHCG ([1]; 250 g ai/ha) | phytotoxicity rating SORHA ([4]; 250 g ai/ha) | phytotoxicity rating CORN ([13]; 250 g ai/ha) | Pre-emerge Herbicidal Activity, phytotoxicity rating (0-100), DIGSA ([21]; 63 g ai/ha)
10: phytotoxicity rating DIGSA ([9]; 63 g ai/ha)
20: phytotoxicity rating ECHCG ([1]; 63 g ai/ha) | phytotoxicity rating SORHA ([4]; 63 g ai/ha) | Pre-emerge Herbicidal Activity, phytotoxicity rating (0-100), IPOHE ([15]; 63 g ai/ha)
95: phytotoxicity rating IPOHE ([2]; 63 g ai/ha) | Pre-emerge phytotoxicity rating (0-100), crop damage, RICE ([23]; 250 g ai/ha) | Pre-emerge phytotoxicity rating (0-100), crop damage, CORN ([24]; 250 g ai/ha)
100: phytotoxicity rating IPOHE ([2]; 250 g ai/ha) | phytotoxicity rating ABUTH ([3]; 63 g ai/ha) | phytotoxicity rating ABUTH ([3]; 250 g ai/ha) | phytotoxicity rating AMBEL ([5]; 63 g ai/ha) | phytotoxicity rating AMBEL ([5]; 250 g ai/ha) | phytotoxicity rating CASOB ([6]; 63 g ai/ha) | phytotoxicity rating CASOB ([6]; 250 g ai/ha) | phytotoxicity rating AMARE ([8]; 63 g ai/ha) | phytotoxicity rating AMARE ([8]; 250 g ai/ha) | phytotoxicity rating CHEAL ([10]; 63 g ai/ha) | phytotoxicity rating CHEAL ([10]; 250 g ai/ha) | Pre-emerge Herbicidal Activity, phytotoxicity rating (0-100), AMARE ([11]; 63 g ai/ha) | Pre-emerge Herbicidal Activity, phytotoxicity rating (0-100), AMARE ([11]; 250 g ai/ha) | Pre-emerge Herbicidal Activity, phytotoxicity rating (0-100), ECHCG ([14]; 250 g ai/ha) | Pre-emerge Herbicidal Activity, phytotoxicity rating (0-100), IPOHE ([15]; 250 g ai/ha) | Pre-emerge Herbicidal Activity, phytotoxicity rating (0-100), ABUTH ([16]; 63 g ai/ha) | Pre-emerge Herbicidal Activity, phytotoxicity rating (0-100), ABUTH ([16]; 250 g ai/ha) | Pre-emerge Herbicidal Activity, phytotoxicity rating (0-100), SORHA ([17]; 250 g ai/ha) | Pre-emerge Herbicidal Activity, phytotoxicity rating (0-100), AMBEL ([18]; 250 g ai/ha) | Pre-emerge Herbicidal Activity, phytotoxicity rating (0-100), SETVI ([20]; 63 g ai/ha) | Pre-emerge Herbicidal Activity, phytotoxicity rating (0-100), SETVI ([20]; 250 g ai/ha) | Pre-emerge Herbicidal Activity, phytotoxicity rating (0-100), DIGSA ([21]; 250 g ai/ha) | Pre-emerge Herbicidal Activity, phytotoxicity rating (0-100), CHEAL ([22]; 63 g ai/ha) | Pre-emerge Herbicidal Activity, phytotoxicity rating (0-100), CHEAL ([22]; 250 g ai/ha)
50: phytotoxicity rating SETVI ([7]; 63 g ai/ha) | phytotoxicity rating RICE ([12]; 63 g ai/ha) | Pre-emerge Herbicidal Activity, phytotoxicity rating (0-100), ECHCG ([14]; 63 g ai/ha) | Pre-emerge Herbicidal Activity, phytotoxicity rating (0-100), AMBEL ([18]; 63 g ai/ha)
60: phytotoxicity rating SETVI ([7]; 250 g ai/ha)
30: Pre-emerge Herbicidal Activity, phytotoxicity rating (0-100), CASOB ([19]; 63 g ai/ha)
40: phytotoxicity rating DIGSA ([9]; 250 g ai/ha) | phytotoxicity rating CORN ([13]; 63 g ai/ha) | Pre-emerge phytotoxicity rating (0-100), crop damage, CORN ([24]; 63 g ai/ha)
70: Pre-emerge Herbicidal Activity, phytotoxicity rating (0-100), SORHA ([17]; 63 g ai/ha)
85: phytotoxicity rating RICE ([12]; 250 g ai/ha)
99: Pre-emerge Herbicidal Activity, phytotoxicity rating (0-100), CASOB ([19]; 250 g ai/ha)
80: Pre-emerge phytotoxicity rating (0-100), crop damage, RICE ([23]; 63 g ai/ha)
